Experimental findings from US6740657B2, “Aminomethyl-pyrroloquinazoline compounds as thrombin receptor antagonists” (Ortho-McNeil Pharmaceutical, Inc., priority 2001, dated 2004) are described below.

In experiment [1] the test system is platelet aggregation stimulated by TRAP-6 (gel-filtered platelets). Kind of experiment: In vitro inhibition of TRAP-6-induced gel-filtered platelet aggregation. Particulars: for IC50: agonist TRAP-6, read-out: GFP Aggr. IC50 (μM), TRAP-6; for inhibition at 50 µM: read-out: GFP Aggr. % Inhibition, TRAP-6. Type of experiment: cell-based, Human. On the procedure: (§1) In Vitro Inhibition of Thrombin-Induced Gel-Filtered Platelet Aggregation Assay
(§2) The percentage of platelet aggregation is calculated as an increase in light transmission of compound-treated platelet concentrate vs. control-treated platelet concentrate. Human blood is obtained from drug free, normal donors in tubes containing 0.13 M sodium citrate. Platelet rich plasma (PRP) is collected by centrifugation of whole blood at 200×g for 10 min at 25° C. The PRP (5 mL) is gel filtered through Sepharose 2B (bed volume 50 mL), and the platelet count is adjusted to 2×10^7 platelets per sample. The following constituents are added to a siliconized cuvette: concentrated platelet filtrate and Tyrode's buffer (0.14 M NaCl, 0.0027 M KCl, 0.012 M NaHCO3, 0.76 mM Na2HPO4, 0.0055 M glucose, 2 mg/mL BSA and 5.0 mM HEPES@pH 7.4) in an amount equal to 350 μL, 50 μL of 20 mM calcium and 50 μL of the test compound. Aggregation is monitored in a BIODATA aggregometer for the 3 min following the addition of agonist (thrombin 50 μL of 1 unit/mL).
(§3) Table 5 contains IC50 values (μM) or % inhibition@50 μM of the compounds against platelet aggregation stimulated (GFP Aggr.) by thrombin or TRAP-6 (Thr or TRAP-6) and IC50 values (μM) in a thrombin receptor (PAR-1) binding assay (Binding). The compounds of Table 5 correspond to those shown on Table 4.

The test system of experiment [2] is platelet aggregation stimulated by thrombin (gel-filtered platelets). As to the kind of experiment: In vitro inhibition of thrombin-induced gel-filtered platelet aggregation. Particulars: agonist thrombin; for IC50: read-out: GFP Aggr. IC50 (μM), Thr; for inhibition at 50 µM: Homo sapiens, Platelet, read-out: GFP Aggr. % Inhibition, Thr. Format: cell-based, Human. On the procedure:
as §1, §2, §3

Experiment [3] deals with T1, thrombin receptor (PAR-1) (Homo sapiens, UniProt P25116).
T1 construct: CHRF membranes (Jones, Biochim. Biophys. Acta 1992, 1136, 272) are thawed from −70° C; endogenous in cells; the full cell line name is own knowledge
T1 sequence (P25116 22-425): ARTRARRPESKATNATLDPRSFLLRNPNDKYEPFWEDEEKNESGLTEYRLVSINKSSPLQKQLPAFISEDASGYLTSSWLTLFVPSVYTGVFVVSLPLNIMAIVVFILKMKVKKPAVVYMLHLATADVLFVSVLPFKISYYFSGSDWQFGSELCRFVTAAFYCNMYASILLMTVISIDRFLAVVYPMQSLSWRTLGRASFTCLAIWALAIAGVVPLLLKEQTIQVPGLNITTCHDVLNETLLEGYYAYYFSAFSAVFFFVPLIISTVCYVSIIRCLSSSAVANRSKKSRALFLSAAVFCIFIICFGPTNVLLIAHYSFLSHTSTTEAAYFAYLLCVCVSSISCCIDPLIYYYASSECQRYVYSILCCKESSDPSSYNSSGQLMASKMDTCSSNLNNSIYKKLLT
Kind of experiment: In vitro thrombin receptor binding assay (CHRF membranes, tritiated 721-40). The note with it: thrombin receptor (PAR-1) binding, read-out: Binding IC50 (μM), Thr. On the procedure: In Vitro Thrombin Receptor Binding Assay
CHRF membranes (Jones, Biochim. Biophys. Acta 1992, 1136, 272) are thawed from −70° C., centrifuged at maximum speed for 5 min, washed twice with binding buffer (50 mM HEPES containing 5 mM MgCl2 and 0.1% BSA), and re-suspended in binding buffer (25 μg/[…]). 100 μL of membranes are added to the 24-Wallac plates and delivered to the Tomtech apparatus. In a typical experiment, 6 μL of samples (from a 125 μg/mL intermediary plate, 20% DMSO) and 44 μL buffer are delivered to the plates (final conc. of compounds is 3.7 μg/mL, 0.6% DMSO). Similarly, 6 μL 20% DMSO and 44 μL buffer are delivered to both column 1 (NSB) and column 12 (TB). 10 μL Ser-pFPhe-hArg-Leu-hArg-Lys-Tyr-NH2 (721-40; 500 μM in deionized water) is added to column 1.50 μL tritiated 721-40 (specific activity 46 Ci/mmol) is added to all the wells. The plates are mixed well for 20 seconds, incubated for 30 min, and then harvested with 10 mM HEPES/138 mM NaCl using the Skatron harvester. The filters (GF/C Brandel FPXLR 296) are presoaked 3 h in 0.5% polyethylenimine in HEPES/0.1M N-acetylglucosamine) are set in saran wrap and dried for 3 min in the microwave, and placed in sample bags (Wallac 1450-432). 4.5 mL scintillation fluid (Wallac, Betaplate Scint 1205-440) is added. The bags are sealed, placed in filter cassettes (Wallac 1450-104), and analyzed on the microbeta counter. […]

[4] abbreviates: Homo sapiens, Platelet, agonist TRAP-6, % inhibition @ 50 μM.

Where two headings read alike, the source gives them in different places.

As to `CN(C)Cc1cn(Cc2c(Cl)cccc2Cl)c2ccc3nc(N[C@@H](Cc4ccccc4)C(=O)N[C@@H](CCN)C(=O)NCc4ccccc4)nc(N)c3c12` [Compound 2, α-[[1-amino-7-[(2,6-dichlorophenyl)methyl]-9-[(dimethylamino)methyl]-7H-pyrrolo[3,2-f]quinazolin-3-yl]amino]-N-[(1S)-3-amino-1-[[(phenylmethyl)amino]carbonyl]propyl]-(α^1S)-benzenepropanamide], the IC50 stood at 3 µM in experiment [1] and 13 µM in experiment [2].
For the molecule `CN(C)Cc1cn(Cc2c(Cl)cccc2Cl)c2ccc3nc(N(C)C)nc(N)c3c12` [Compound 3, 7-[(2,6-dichlorophenyl)methyl]-9-[(dimethylamino)methyl]-N^3,N^3-dimethyl-7H-pyrrolo[3,2-f]quinazoline-1,3-diamine], the figures for the inhibition at 50 µM in experiment [1] (setting [4]) and in experiment [2] (% inhibition @ 50 μM) were 40% and 27%, respectively.
For `CN(C)Cc1cn(Cc2c(Cl)cccc2Cl)c2ccc3nc(NC4CC4)ncc3c12` [Compound 4, 3-(cyclopropylamino)-7-[(2,6-dichlorophenyl)methyl]-N,N-dimethyl-7H-pyrrolo[3,2-f]quinazoline-9-methanamine] the same measures were 20% and 30%.
`Nc1nc(Cl)nc2ccc3c(c(CN4CCCC4)cn3Cc3c(Cl)cccc3Cl)c12` [Compound 5, 3-chloro-7-[(2,6-dichlorophenyl)methyl]-9-(1-pyrrolidinylmethyl)-7H-pyrrolo[3,2-f]quinazolin-1-amine]: in experiment [1] (agonist TRAP-6, % inhibition @ 50 μM), the “GFP Aggr. % Inhibition, TRAP-6” value is listed as 32%. Further, the “GFP Aggr. % Inhibition, Thr” value in experiment [2] (% inhibition @ 50 μM) is recorded as 16%.
For `COc1nc(Cl)nc2ccc3c(c(CN(C)C)cn3Cc3c(Cl)cccc3Cl)c12` [Compound 6, 3-chloro-7-[(2,6-dichlorophenyl)methyl]-1-methoxy-N,N-dimethyl-7H-pyrrolo[3,2-f]quinazoline-9-methanamine], the IC50 in experiment [1] (Homo sapiens, Platelet) came out at 31 µM. In addition, the inhibition at 50 µM in experiment [2] (% inhibition @ 50 μM) stood at 40%.
In the case of `CN(C)Cc1cn(Cc2c(Cl)cccc2Cl)c2ccc3nc(Cl)nc(N)c3c12` [Compound 7, 1-amino-3-chloro-7-[(2,6-dichlorophenyl)methyl]-N,N-dimethyl-7H-pyrrolo[3,2-f]quinazoline-9-methanamine], the inhibition at 50 µM in experiment [1] (setting [4]) stood at 3%; in experiment [2] (% inhibition @ 50 μM), 14%.
Take “N^3-cyclopropyl-7-[(2,6-dichlorophenyl)methyl]-9-[(dimethylamino)methyl]-7H-pyrrolo[3,2-f]quinazoline-1,3-diamine [Compound 1]”: the values for the IC50 in experiment [1], in experiment [3] and in experiment [2] were 13 µM, 9.6 µM and 21 µM, respectively.

Usually IC50 stands for the concentration that gives 50% inhibition. The term inhibition denotes how much of the control response was suppressed.
